For five molecules, DC50, Emax and EC50 results are on record in ChEMBL document CHEMBL5512607, “Journey of Von Hippel-Lindau (VHL) E3 ligase in PROTACs design: From VHL ligands to VHL-based degraders” (Eur J Med Chem, 2024).

The target of one test is Bcl-2-like protein 1 (Homo sapiens, UniProt Q07817). The test can be described thus: Induction of Bcl-xl degradation in HEK293T cells incubated for 16 hrs by immunoblotting analysis. The class given is cell-based.
Test [1] concerns the target Apoptosis regulator Bcl-2 (Homo sapiens, UniProt P10415). Kind of test: Induction of Bcl2 degradation in HEK293T cells incubated for 16 hrs by immunoblotting analysis. The class given is cell-based. Background: In western blotting, separated proteins are transferred to a membrane and probed.
Test [2] concerns the target T1, von Hippel-Lindau disease tumor suppressor/Epidermal growth factor receptor (Homo sapiens, UniProt P00533+P40337). The test can be described thus: PROTAC activity at VHL/EGFR Ex20ins mutant in human HeLa cells assessed as protein degradation incubated for 24 hrs by immunoblot analysis. The class given is cell-based.
Target sequence in this assay (P00533 whole entry, looked up, stated change not applied): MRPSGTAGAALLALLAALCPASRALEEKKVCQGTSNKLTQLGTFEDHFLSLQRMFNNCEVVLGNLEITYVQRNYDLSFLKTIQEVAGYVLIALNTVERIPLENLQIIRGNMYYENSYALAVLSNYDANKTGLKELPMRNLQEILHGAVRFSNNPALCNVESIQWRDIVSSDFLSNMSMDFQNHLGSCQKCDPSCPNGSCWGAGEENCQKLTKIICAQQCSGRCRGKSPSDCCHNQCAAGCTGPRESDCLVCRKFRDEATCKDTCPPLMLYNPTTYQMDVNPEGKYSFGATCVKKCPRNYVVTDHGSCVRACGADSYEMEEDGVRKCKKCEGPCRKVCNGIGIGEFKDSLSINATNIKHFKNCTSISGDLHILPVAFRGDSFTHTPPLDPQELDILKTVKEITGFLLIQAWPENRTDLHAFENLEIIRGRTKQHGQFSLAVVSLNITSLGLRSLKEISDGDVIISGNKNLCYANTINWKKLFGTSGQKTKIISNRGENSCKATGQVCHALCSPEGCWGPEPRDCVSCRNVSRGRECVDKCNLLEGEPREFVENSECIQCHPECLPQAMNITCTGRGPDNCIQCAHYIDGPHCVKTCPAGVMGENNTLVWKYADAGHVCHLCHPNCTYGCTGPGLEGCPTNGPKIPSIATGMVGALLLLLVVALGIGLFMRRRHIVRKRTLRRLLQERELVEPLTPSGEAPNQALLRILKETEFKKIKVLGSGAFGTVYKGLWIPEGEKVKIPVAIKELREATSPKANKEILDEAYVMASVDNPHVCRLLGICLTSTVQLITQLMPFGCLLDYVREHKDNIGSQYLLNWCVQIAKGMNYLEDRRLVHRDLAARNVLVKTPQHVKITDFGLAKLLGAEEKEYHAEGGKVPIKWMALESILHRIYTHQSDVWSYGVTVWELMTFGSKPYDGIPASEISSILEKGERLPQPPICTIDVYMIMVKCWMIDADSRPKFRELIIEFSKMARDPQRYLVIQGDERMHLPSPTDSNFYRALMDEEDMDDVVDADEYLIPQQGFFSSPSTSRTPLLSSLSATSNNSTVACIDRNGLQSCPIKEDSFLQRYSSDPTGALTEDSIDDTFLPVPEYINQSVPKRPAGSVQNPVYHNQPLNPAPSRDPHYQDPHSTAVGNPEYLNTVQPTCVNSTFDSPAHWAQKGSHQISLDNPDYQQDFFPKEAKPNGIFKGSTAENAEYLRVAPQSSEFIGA
Target sequence in this assay (P40337 whole entry, looked up, stated change not applied): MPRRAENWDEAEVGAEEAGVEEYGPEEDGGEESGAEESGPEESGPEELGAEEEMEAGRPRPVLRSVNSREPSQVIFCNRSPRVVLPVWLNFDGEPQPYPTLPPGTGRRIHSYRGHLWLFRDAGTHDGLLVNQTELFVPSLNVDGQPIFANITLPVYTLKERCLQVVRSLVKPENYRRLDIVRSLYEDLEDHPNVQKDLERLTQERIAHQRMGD
Test [3] deals with T1, von Hippel-Lindau disease tumor suppressor/Epidermal growth factor receptor. Kind of test: PROTAC activity at VHL/wild type EGFR in human OVCAR-8 cells assessed as protein degradation incubated for 24 hrs by immunoblot analysis. The class given is cell-based.
Target sequence in this assay (P00533 whole entry): as the sequence (P00533 whole entry, looked up, stated change not applied) above
Target sequence in this assay (P40337 whole entry): as the sequence (P40337 whole entry, looked up, stated change not applied) above
For test [4], the system named is von Hippel-Lindau disease tumor suppressor/Epidermal growth factor receptor (Homo sapiens), P00533+P40337 [UNDEFINED MUTATION]. The test can be described thus: PROTAC activity at VHL/EGFR Ex20ins mutant in human HeLa cells assessed as maximal degradation incubated for 24 hrs by immunoblot analysis relative to control. The class given is cell-based.
The target of test [5] is T1, von Hippel-Lindau disease tumor suppressor/Epidermal growth factor receptor. The test can be described thus: PROTAC activity at VHL/wild type EGFR in human OVCAR-8 cells assessed as maximal degradation incubated for 24 hrs by immunoblot analysis relative to control. The class given is cell-based.
Test [6] shares this target. Kind of test: PROTAC activity at VHL/EGFR del19 mutant in human HCC827 cells assessed as protein degradation incubated for 24 hrs by immunoblot analysis. The class given is cell-based.
Target sequence in this assay (P00533 whole entry, looked up, stated change not applied): as the sequence (P00533 whole entry, looked up, stated change not applied) above
Target sequence in this assay (P40337 whole entry, looked up, stated change not applied): as the sequence (P40337 whole entry, looked up, stated change not applied) above
The target is the same in test [7]. Kind of test: PROTAC activity at VHL/EGFR del19 mutant in human NCI-H3255 cells assessed as protein degradation incubated for 24 hrs by immunoblot analysis. The class given is cell-based.
Target sequence in this assay (P00533 whole entry, looked up, stated change not applied): as the sequence (P00533 whole entry, looked up, stated change not applied) above
Target sequence in this assay (P40337 whole entry, looked up, stated change not applied): as the sequence (P40337 whole entry, looked up, stated change not applied) above
For test [8], the system named is von Hippel-Lindau disease tumor suppressor/Epidermal growth factor receptor (Homo sapiens), P00533+P40337 [UNDEFINED MUTATION]. The test can be described thus: PROTAC activity at VHL/EGFR del19 mutant in human HCC827 cells assessed as maximal degradation incubated for 24 hrs by immunoblot analysis relative to control. The class given is cell-based.
Test [9] shares this test system. Kind of test: PROTAC activity at VHL/EGFR del19 mutant in human NCI-H3255 cells assessed as maximal degradation incubated for 24 hrs by immunoblot analysis relative to control. The class given is cell-based.
The target in test [10] is T2, von Hippel-Lindau disease tumor suppressor/Bcl-2-like protein 1 (Homo sapiens, UniProt Q07817+P40337). Kind of test: PROTAC activity at VHL/BCL-XL in human MOLT-4 cells assessed as induction of BCL-XL degradation incubated for 16 hrs by immunoblot analysis. The class given is cell-based.
Target sequence in this assay (Q07817 whole entry): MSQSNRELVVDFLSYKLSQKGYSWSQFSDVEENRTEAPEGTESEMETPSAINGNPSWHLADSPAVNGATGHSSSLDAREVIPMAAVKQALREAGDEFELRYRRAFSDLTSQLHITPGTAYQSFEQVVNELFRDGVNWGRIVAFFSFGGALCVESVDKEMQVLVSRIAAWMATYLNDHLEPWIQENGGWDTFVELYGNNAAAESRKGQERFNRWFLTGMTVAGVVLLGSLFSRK
Target sequence in this assay (P40337 whole entry): as the sequence (P40337 whole entry, looked up, stated change not applied) above
The target in test [11] is T2, von Hippel-Lindau disease tumor suppressor/Bcl-2-like protein 1. Kind of test: Protac activity at VHL/BCL-XL in human MOLT-4 cells assessed as induction of protein degradation by measuring maximal degradation relative to control. The class given is cell-based.
Target sequence in this assay (P40337 whole entry, looked up): as the sequence (P40337 whole entry, looked up, stated change not applied) above
Target sequence in this assay (Q07817 whole entry, looked up): as the sequence (Q07817 whole entry) above
For test [12], the system named is MOLT-4. The test can be described thus: Anticancer activity against human MOLT-4 cells assessed as reduction in cell viability incubated for 72 hrs by MTS assay. The class given is functional, cell-based. The conditions noted are these: MOLT-4, 72 h. A general note: Tetrazolium assays rely on reduction of a dye to a coloured formazan, in cell work by metabolically active cells.

Test [13] concerns the target T2, von Hippel-Lindau disease tumor suppressor/Bcl-2-like protein 1. Kind of test: PROTAC activity at VHL/BCL-XL in human THP-1 cells assessed as induction of BCL-XL degradation incubated for 16 hrs by immunoblot analysis. The class given is cell-based.
Target sequence in this assay (Q07817 whole entry): as above
Target sequence in this assay (P40337 whole entry): as the sequence (P40337 whole entry, looked up, stated change not applied) above
Test [14] has the same target. The test can be described thus: PROTAC activity at VHL/BCL-XL in human THP-1 cells assessed as induction of protein degradation by measuring maximal degradation relative to control. The class given is cell-based.
Target sequence in this assay (P40337 whole entry, looked up): as the sequence (P40337 whole entry, looked up, stated change not applied) above
Target sequence in this assay (Q07817 whole entry, looked up): as the sequence (Q07817 whole entry) above
The test system of test [15] is MOLT-4. The test can be described thus: Antiproliferative activity against human MOLT-4 cells assessed as cell growth inhibition incubated for 72 hrs by Cell Titer-Glo Luminescent assay. To be noted: MOLT-4, 72 h. The class given is functional, cell-based.

Chain of von Hippel-Lindau disease tumor suppressor/Epidermal growth factor receptor (Homo sapiens), P00533+P40337 [UNDEFINED MUTATION] (P00533 whole entry, looked up, stated change not applied): as the sequence (P00533 whole entry, looked up, stated change not applied) above
Chain of von Hippel-Lindau disease tumor suppressor/Epidermal growth factor receptor (Homo sapiens), P00533+P40337 [UNDEFINED MUTATION] (P40337 whole entry, looked up, stated change not applied): as the sequence (P40337 whole entry, looked up, stated change not applied) above
Chain of Bcl-2-like protein 1 (Q07817 whole entry): as the sequence (Q07817 whole entry) above
Chain of Apoptosis regulator Bcl-2 (P10415 whole entry): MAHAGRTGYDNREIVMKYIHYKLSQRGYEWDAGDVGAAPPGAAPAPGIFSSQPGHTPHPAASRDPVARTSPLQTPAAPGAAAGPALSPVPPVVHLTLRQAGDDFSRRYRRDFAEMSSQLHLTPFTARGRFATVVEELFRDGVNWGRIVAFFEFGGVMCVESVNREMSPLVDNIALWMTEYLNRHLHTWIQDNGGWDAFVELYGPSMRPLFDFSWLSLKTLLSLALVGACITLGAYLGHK

`Cc1ncsc1-c1ccc([C@H](C)NC(=O)[C@@H]2C[C@@H](O)CN2C(=O)[C@H](NC(=O)CCCCCCC(=O)N2CCN(C[C@]3(C)CCC(c4ccc(Cl)cc4)=C(CN4CCN(c5ccc(C(=O)NS(=O)(=O)c6ccc(N[C@H](CCN7CCOCC7)CSc7ccccc7)c(S(=O)(=O)C(F)(F)F)c6)cc5)CC4)C3)CC2)C(C)(C)C)cc1`: the DC50 (as a rule, the midpoint of the concentration-degradation curve) on Bcl-2-like protein 1 is 6 nM; in test [1], 48 nM.

Regarding `Cc1ncsc1-c1ccc(CNC(=O)[C@@H]2C[C@@H](O)CN2C(=O)[C@H](NC(=O)COCCOCCOc2ccc(-c3ccc4ncnc(Nc5ccc(OCc6cccc(F)c6)c(Cl)c5)c4c3)cc2)C(C)(C)C)cc1`, the DC50 in test [2] worked out at 736 nM; in test [3], 39.2 nM. The Emax in [4] was determined as 68.8%; in test [5] it was 97.6%.

In the case of `COc1cc2ncnc(Nc3ccc(F)c(Cl)c3)c2cc1OCCCCCOCCOCCC(=O)N[C@@H](C(=O)N1C[C@@H](O)C[C@@H]1C(=O)NCc1ccc(-c2scnc2C)cc1)C(C)(C)C`, the values for the DC50 in [6] and in [7] were 11.7 nM and 22.3 nM, respectively. In addition, the Emax in test [8] amounted to 98.9%; in test [9], 96.6%.

On to `Cc1ncsc1-c1ccc([C@H](C)NC(=O)[C@H]2C[C@H](O)CN2C(=O)[C@@H](NC(=O)CCCCCC(=O)N2CCN(CC[C@H](CSc3ccccc3)Nc3ccc(S(=O)(=O)NC(=O)c4ccc(N5CCN(CC6=C(c7ccc(Cl)cc7)CCC(C)(C)C6)CC5)cc4)cc3S(=O)(=O)C(F)(F)F)CC2)C(C)(C)C)cc1`, for which the DC50 in test [10] came out at 53 nM. In addition, in test [11], the Emax was found to be 90.8%. In addition, the EC50 (usually the midpoint of the concentration-response curve) in the test on MOLT-4 [12] turned out to be 52 nM.

In the case of `Cc1ncsc1-c1ccc(CNC(=O)[C@@H]2C[C@@H](O)CN2C(=O)[C@H](NC(=O)CCOCCOCCOCCOCCOCCOCC#Cc2ccc(OCCCc3sc(N4CCc5cccc(C(=O)Nc6nc7ccccc7s6)c5C4)nc3C(=O)O)cc2)C(C)(C)C)cc1`, in test [13], the DC50 stood at 4.8 nM. The Emax in test [14] worked out at 76%. Also, the EC50 with MOLT-4 [15] was determined as 578 nM.
